Data as given in patent publication US11173145B2, “Compounds useful as inhibitors of indoleamine 2,3-dioxygenase and/or tryptophan dioxygenase” (Board of Regents, The University of Texas System, priority 2017, dated 2021).

Target: T1, IDO1 (Homo sapiens, UniProt P14902)
T1 construct: endogenous in cells; host or cells: HeLa cells (ATCC), IFNgamma-induced
Test: IDO1 cell-based assay (HeLa cells, IFNgamma-induced, N-formylkynurenine/L-tryptophan by RFMS)
Details: 10 ng/mL IFNgamma, 24 hours
Protocol: HeLa cells were obtained from the American Type Culture Collection (ATCC) and maintained in DMEM media containing 10% FBS. Cells (7,000/well) were seeded onto a 384 well plate in 50 μL of media and incubated at 37° C., 5% CO2 overnight. Cell media was aspirated, fresh media containing 10 ng/mL IFNgamma was added, and cells were incubated in absence or presence of various concentrations of test compound (final 0.5% DMSO) for 24 hours. Aliquots of the cell conditioned media were removed from the cell plate, and mixed with an equal volume of 200 mM ZnSO4 to precipitate media containing proteins. Two volumes of acetonitrile were added, mixed, and samples were then centrifuged at 2250G for 20 minutes at 4° C. Aliquots of the supernatant were diluted 1:10 in 0.1% formic acid containing 3 μM of deuterated Tryptophan as an internal standard.
Samples were analyzed via RFMS to quantify N-Formyl Kynurenine (AUC) and L-tryptophan (AUC). A C18 cartridge was used with mobile phases of 0.1% Formic Acid and 80% ACN/0.1% Formic Acid under isocratic conditions. Dose-response curves were analyzed using IC50 regression curve fitting (GeneData Screener). […] Cell viability was also assessed using the Cell Titer Glo Kit (Promega) following manufacturer recommendation.

T1 sequence (P14902 whole entry): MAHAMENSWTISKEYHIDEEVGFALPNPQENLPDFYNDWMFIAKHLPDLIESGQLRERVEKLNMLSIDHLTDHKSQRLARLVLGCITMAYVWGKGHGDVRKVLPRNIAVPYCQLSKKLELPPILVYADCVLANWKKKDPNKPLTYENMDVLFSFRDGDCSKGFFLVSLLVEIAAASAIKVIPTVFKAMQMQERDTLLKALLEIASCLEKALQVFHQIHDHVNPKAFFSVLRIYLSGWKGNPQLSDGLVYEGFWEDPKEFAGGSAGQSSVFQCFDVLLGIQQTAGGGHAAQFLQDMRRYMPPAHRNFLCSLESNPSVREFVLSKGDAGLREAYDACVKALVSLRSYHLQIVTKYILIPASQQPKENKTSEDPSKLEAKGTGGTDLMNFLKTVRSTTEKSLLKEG

| Compound | IC50 [nM] |
| --- | --- |
| CCC(NC(=O)c1ccc(Cl)cc1)[C@H]1[C@@H]2C[C@@H](n3ncc4cnccc43)C[C@@H]21 (stereo partly drawn) [Compound 51, N-(1-((1R,3s,5S,6r)-3-(1H-pyrazolo[4,3-c]pyridin-1-yl)bicyclo[3.1.0]hexan-6-yl)propyl)-4-chlorobenzamide] | < 200 |
| CC(C)(NC(=O)c1ccc(C#N)cc1)C1[C@H]2CC(Oc3cnnc4ccccc34)C[C@@H]12 (stereo partly drawn) [Compound 88, N-(2-((1R,5S)-3-(cinnolin-4-yloxy)bicyclo[3.1.0]hexan-6-yl)propan-2-yl)-4-cyanobenzamide] | < 200 |
| CC(NC(=O)c1ccc(Cl)cc1)[C@H]1[C@@H]2C[C@@H](Oc3ncnc4cc(F)ccc34)C[C@@H]21 (stereo partly drawn) [Compound 70, 4-chloro-N-(1-((1R,3s,5S,6r)-3-((7-fluoroquinazolin-4-yl)oxy)bicyclo[3.1.0]hexan-6-yl)ethyl)benzamide] | < 200 |
| CCC(NC(=O)c1ccc(Cl)cc1)[C@H]1[C@@H]2C[C@@H](Oc3ncnc4ccc(F)cc34)C[C@@H]21 (stereo partly drawn) [Compound 5, 4-chloro-N-(1-((1R,3s,5S,6r)-3-((6-fluoroquinazolin-4-yl)oxy)bicyclo[3.1.0]hexan-6-yl)propyl)benzamide] | < 200 |
| C[C@@H](NC(=O)c1ccc(C#N)cc1)[C@H]1[C@@H]2C[C@H](O)C[C@@H]21 [Compound 296, 4-cyano-N-((R)-1-((1R,3R,5S,6r)-3-hydroxybicyclo[3.1.0]hexan-6-yl)ethyl)benzamide] | > 5000 |
| CC(NC(=O)c1ccc(C#N)cc1)[C@H]1[C@@H]2C[C@@H](n3cnc4cc(F)ccc4c3=O)C[C@@H]21 (stereo partly drawn) [Compound 120, 4-cyano-N-(1-((1R,3s,5S,6r)-3-(7-fluoro-4-oxoquinazolin-3(4H)-yl)bicyclo[3.1.0]hexan-6-yl)ethyl)benzamide] | < 200 |
| CCC(NC(=O)c1ccc(Cl)cc1)[C@H]1[C@@H]2C[C@@H](Oc3cccnc3Cl)C[C@@H]21 (stereo partly drawn) [Compound 60, 4-chloro-N-(1-((1R,3s,5S,6r)-3-((2-chloropyridin-3-yl)oxy)bicyclo[3.1.0]hexan-6-yl)propyl)benzamide] | < 200 |
| CCC(NC(=O)c1ccc(Cl)cc1)[C@H]1[C@@H]2C[C@@H](Oc3c(Cl)ccnc3C)C[C@@H]21 (stereo partly drawn) [Compound 92, 4-chloro-N-(1-((1R,3s,5S,6r)-3-((4-chloro-2-methylpyridin-3-yl)oxy)bicyclo[3.1.0]hexan-6-yl)propyl)benzamide] | < 200 |
| O=C(Nc1ccc(Cl)cc1)C1[C@H]2CC(Oc3ccnc4ccccc34)C[C@@H]12 (stereo partly drawn) [Compound 8, (1R,5S)-N-(4-chlorophenyl)-3-(quinolin-4-yloxy)bicyclo[3.1.0]hexane-6-carboxamide] | 2000 to 5000 |
| O=C(NC[C@@H]1[C@H]2C[C@@H](Oc3ccc4nccc(Cl)c4c3)C[C@@H]12)c1ccc(Cl)cc1 [Compound 33, 4-chloro-N-(((1R,3r,5S,6r)-3-((4-chloroquinolin-6-yl)oxy)bicyclo[3.1.0]hexan-6-yl)methyl)benzamide] | 200 to 2000 |
| O=C(NC1C2CC(Oc3cc(C(F)(F)F)nc4ccc(F)cc34)CC21)c1ccc(Cl)cc1 (stereo not drawn) [Compound 25, 4-chloro-N-(3-((6-fluoro-2-(trifluoromethyl)quinolin-4-yl)oxy)bicyclo[3.1.0]hexan-6-yl)benzamide] | > 5000 |
| CC[C@@H](NC(=O)N1CC(F)(F)C1)[C@H]1[C@@H]2C[C@@H](n3cnc4cc(F)c(F)cc43)C[C@@H]21 [Compound 354, N-((R)-1-((1R,3S,5S,6r)-3-(5,6-difluoro-1H-benzo[d]imidazol-1-yl)bicyclo[3.1.0]hexan-6-yl)propyl)-3,3-difluoroazetidine-1-carboxamide] | 200 to 2000 |
| CCC(NC(=O)c1cnc(OC)nc1)[C@H]1[C@@H]2C[C@@H](Oc3ncnc4ccc(F)cc34)C[C@@H]21 (stereo partly drawn) [Compound 68, N-(1-((1R,3s,5S,6r)-3-((6-fluoroquinazolin-4-yl)oxy)bicyclo[3.1.0]hexan-6-yl)propyl)-2-methoxypyrimidine-5-carboxamide] | 2000 to 5000 |
| CCOC(=O)CC(NC(=O)c1ccc(Cl)cc1)[C@H]1[C@@H]2C[C@@H](Oc3ncnc4ccc(F)cc34)C[C@@H]21 (stereo partly drawn) [Compound 134, ethyl 3-(4-chlorobenzamido)-3-((1R,3s,5S,6r)-3-((6-fluoroquinazolin-4-yl)oxy)bicyclo[3.1.0]hexan-6-yl)propanoate] | < 200 |
| CCC(NC(=O)c1ccc(Cl)cc1)[C@H]1[C@@H]2C[C@@H](Nc3c(F)cc(F)cc3[N+](=O)[O-])C[C@@H]21 (stereo partly drawn) [Compound 264, 4-chloro-N-(1-((1R,3s,5S,6r)-3-((2,4-difluoro-6-nitrophenyl)amino)bicyclo[3.1.0]hexan-6-yl)propyl)benzamide] | < 200 |
| CCC(NC(=O)c1ccc(Cl)cc1)[C@H]1[C@@H]2C[C@@H](NS(C)(=O)=O)C[C@@H]21 (stereo partly drawn) [Compound 159, 4-chloro-N-(1-((1R,3s,5S,6r)-3-(methylsulfonamido)bicyclo[3.1.0]hexan-6-yl)propyl)benzamide] | 200 to 2000 |
| O=C(NC[C@@H]1[C@H]2C[C@H](n3cnc4cc(F)c(F)cc43)C[C@@H]12)c1cccc(Cl)c1 [Compound 316, 3-chloro-N-(((1R,3s,5S,6r)-3-(5,6-difluoro-1H-benzo[d]imidazol-1-yl)bicyclo[3.1.0]hexan-6-yl)methyl)benzamide] | 200 to 2000 |
| CCC(NC(=O)c1ccc(Cl)cc1)[C@H]1[C@@H]2C[C@@H](n3cncn3)C[C@@H]21 (stereo partly drawn) [Compound 81, N-(1-((1R,3s,5S,6r)-3-(1H-1,2,4-triazol-1-yl)bicyclo[3.1.0]hexan-6-yl)propyl)-4-chlorobenzamide] | 200 to 2000 |
| CCC(NC(=O)c1ccc(Cl)cc1)[C@H]1[C@@H]2C[C@@H](n3cnc4cc(Cl)ccc43)C[C@@H]21 (stereo partly drawn) [Compound 272, 4-chloro-N-(1-((1R,3s,5S,6r)-3-(5-chloro-1H-benzo[d]imidazol-1-yl)bicyclo[3.1.0]hexan-6-yl)propyl)benzamide] | < 200 |
| CCC(NC(=O)c1ccc(Cl)cc1)[C@H]1[C@@H]2C[C@@H](n3nc4ccccc4n3)C[C@@H]21 (stereo partly drawn) [Compound 100, N-(1-((1R,3s,5S,6r)-3-(2H-benzo[d][1,2,3]triazol-2-yl)bicyclo[3.1.0]hexan-6-yl)propyl)-4-chlorobenzamide] | < 200 |
| CCC(NC(=O)c1ccc(Cl)cc1)[C@H]1[C@@H]2C[C@@H](Nc3ccc(Cl)cc3[N+](=O)[O-])C[C@@H]21 (stereo partly drawn) [Compound 270, 4-chloro-N-(1-((1R,3s,5S,6r)-3-((4-chloro-2-nitrophenyl)amino)bicyclo[3.1.0]hexan-6-yl)propyl)benzamide] | < 200 |
| Cc1cccnc1O[C@@H]1C[C@@H]2[C@H](C1)[C@H]2C(C)NC(=O)c1ccc(Cl)cc1 (stereo partly drawn) [Compound 71, 4-chloro-N-(1-((1R,3s,5S,6r)-3-((3-methylpyridin-2-yl)oxy)bicyclo[3.1.0]hexan-6-yl)ethyl)benzamide] | < 200 |
| CCC(NC(=O)c1ccc(C#N)cc1)[C@H]1[C@@H]2C[C@@H](n3cnc4ccc(F)cc4c3=O)C[C@@H]21 (stereo partly drawn) [Compound 67, 4-cyano-N-(1-((1R,3s,5S,6r)-3-(6-fluoro-4-oxoquinazolin-3(4H)-yl)bicyclo[3.1.0]hexan-6-yl)propyl)benzamide] | < 200 |
| CCC(NC(=O)c1ccc(Cl)cc1)[C@H]1[C@@H]2C[C@@H](n3cnc4ccc(F)cc4c3=O)C[C@@H]21 (stereo partly drawn) [Compound 6, 4-chloro-N-(1-((1R,3s,5S,6r)-3-(6-fluoro-4-oxoquinazolin-3(4H)-yl)bicyclo[3.1.0]hexan-6-yl)propyl)benzamide] | < 200 |
| CC[C@@H](NC(=O)c1ccc(Cl)cc1)[C@H]1[C@@H]2C[C@@H](n3cc(C)cn3)C[C@@H]21 [Compound 330, 4-chloro-N-((R)-1-((1R,3S,5S,6r)-3-(4-methyl-1H-pyrazol-1-yl)bicyclo[3.1.0]hexan-6-yl)propyl)benzamide] | < 200 |
| CCC(NC(=O)c1ccc(Cl)cc1)[C@H]1[C@@H]2C[C@@H](Oc3ncccc3C)C[C@@H]21 (stereo partly drawn) [Compound 41, 4-chloro-N-(1-((1R,3s,5S,6r)-3-((3-methylpyridin-2-yl)oxy)bicyclo[3.1.0]hexan-6-yl)propyl)benzamide] | < 200 |
| CC[C@@H](NC(=O)c1ccc(Cl)cc1)[C@H]1[C@@H]2C[C@@H](Nc3ncnc4ccc(C)cc34)C[C@@H]21 [Compound 338, 4-chloro-N-((R)-1-((1R,3S,5S,6r)-3-((6-methylquinazolin-4-yl)amino)bicyclo[3.1.0]hexan-6-yl)propyl)benzamide] | < 200 |
| C=C(C)c1cn([C@@H]2C[C@@H]3[C@H](C2)[C@H]3C(CC)NC(=O)c2ccc(Cl)cc2)nn1 (stereo partly drawn) [Compound 147, 4-chloro-N-(1-((1R,3s,5S,6r)-3-(4-(prop-1-en-2-yl)-1H-1,2,3-triazol-1-yl)bicyclo[3.1.0]hexan-6-yl)propyl)benzamide] | < 200 |
| CC(C(=O)Nc1ccc(Cl)cc1)[C@H]1[C@@H]2C[C@@H](n3cnc4cc(F)c(F)cc43)C[C@@H]21 (stereo partly drawn) [Compound 281, N-(4-chlorophenyl)-2-((1R,3s, 5S, 6r)-3-(5,6-difluoro-1H-benzo[d]imidazol-1-yl)bicyclo[3.1.0]hexan-6-yl)propanamide] | < 200 |
| CCC(NC(=O)c1ccc(Cl)cc1)[C@H]1[C@@H]2C[C@@H](n3nnc4ccccc43)C[C@@H]21 (stereo partly drawn) [Compound 99, N-(1-((1R,3s,5S,6r)-3-(1H-benzo[d][1,2,3]triazol-1-yl)bicyclo[3.1.0]hexan-6-yl)propyl)-4-chlorobenzamide] | < 200 |
